From PMC11822212, “High-throughput screening identifies Aurora kinase B as a critical therapeutic target for Merkel cell carcinoma” (Nature Communications, 2025) come the findings set out here.

Counter-ions that a name gives are not always drawn. Like-named read-outs stand apart in the source and are kept apart here.

One test relates to MCC13 cells (VN-MCC). The experiment in a line: qHTS cell viability (CellTiter-Glo, 72 h; primary and follow-up small molecule screen). In kind it is cell-based, human. For orientation: qHTS replaces the single test concentration by a dilution series.
The next test relates to HACAT cells. The experiment in a line: qHTS cell viability (CellTiter-Glo, 72 h; primary screen), control cell line. The test is classed as cell-based, human.
Test [1] deals with six MCC cell lines and four control cell lines. The experiment in a line: qHTS cell viability, all 10 cell lines screened. In kind it is cell-based.
In a further test the test system is UISO cells (VN-MCC). The experiment in a line: qHTS cell viability (CellTiter-Glo, 72 h; primary and follow-up small molecule screen). In kind it is cell-based, human.
The next test deals with CRL-7250 cells. Briefly: qHTS cell viability (CellTiter-Glo, 72 h; primary screen), control cell line. In kind it is cell-based.
Test [2] deals with VN-MCC cell lines (MCC13, MCC26, UISO). The experiment in a line: qHTS cell viability, VN-MCC cell lines as a group (mean AUC, VN.MCC.avg). In kind it is cell-based, human.
For a further test, the system named is MKL-2 cells (VP-MCC). The experiment in a line: qHTS cell viability (CellTiter-Glo, 72 h; primary and follow-up small molecule screen). In kind it is cell-based, human.
For test [3], the system named is MCC cell lines (WAGA, MKL-1, MKL-2, MCC13, MCC26, UISO). The experiment in a line: qHTS cell viability, all six MCC cell lines as a group (mean AUC, MCC.avg). In kind it is cell-based, human.
In another test the test system is NIH-3T3 cells. Briefly: qHTS cell viability (CellTiter-Glo, 72 h; primary screen), control cell line. In kind it is cell-based, mouse.
In another test the test system is MCC26 cells (VN-MCC). The experiment in a line: qHTS cell viability (CellTiter-Glo, 72 h; primary and follow-up small molecule screen). In kind it is cell-based, human.
Test [4] has as its system VP-MCC cell lines (WAGA, MKL-1, MKL-2). Briefly: qHTS cell viability, VP-MCC cell lines as a group (mean AUC, VP.MCC.avg). In kind it is cell-based, human.
In the next test the test system is HEK293T cells. Briefly: qHTS cell viability (CellTiter-Glo, 72 h; primary screen), control cell line. In kind it is cell-based, human.
In the next test the test system is MKL-1 cells (VP-MCC). The experiment in a line: qHTS cell viability (CellTiter-Glo, 72 h; primary and follow-up small molecule screen). The test is classed as cell-based, human.
The test system of another test is WAGA cells (VP-MCC). The description is as above. In kind it is cell-based, human.
In test [5] the test system is control cell lines (HACAT, HEK293T, CRL-7250, NIH-3T3). Briefly: qHTS cell viability, control cell lines as a group (mean AUC, Control.avg). The test is classed as cell-based.
The mark [6] stands for this setting: MIPE library, 11-point DRC, sheet S2E.
The mark [7] stands for this setting: MIPE library, 11-point DRC, control cell line, sheet S2E.

For `C#CCN(C)[C@H](C)Cc1ccccc1` [Selegiline hydrochloride], the MCC13_AUC in the test on MCC13 cells (VN-MCC) was determined as 453.711. In the test with HACAT cells, this molecule yielded an HACAT_AUC of 471.82. For the same molecule, the Control-MCC in test [1] is 26.4329. In addition, in the test with UISO cells (VN-MCC), the UISO_AUC was found to be 478.192. In the test on CRL-7250 cells, this molecule displayed a CRL7250_AUC of 455.418. In addition, in test [2], the Control-VN-MCC was determined as 1.446 and the VN-MCC_Avg_AUC was 458.075. In the test with MKL-2 cells (VP-MCC), this molecule yielded an MKL2_AUC of 391.028. In test [3], this molecule had an MCC_Avg_AUC of 433.088. Moreover, the NIH3T3_AUC with NIH-3T3 cells was 471.047. In the test with MCC26 cells (VN-MCC), this molecule yielded an MCC26_AUC of 442.321. In addition, in test [4], the Control-VP-MCC came out at 51.4197 and the VP-MCC_Avg_AUC was found to be 408.101. In the test with HEK293T cells, this molecule showed an HEK293T_AUC of 439.797. In the test with MKL-1 cells (VP-MCC), this molecule yielded an MKL1_AUC of 401.694. The WAGA_AUC in the test with WAGA cells (VP-MCC) is listed as 431.581. Further, the Control_Avg_AUC in [5] amounted to 459.521.
In the case of `CN[C@@H]1[C@H](O)[C@H](NC)[C@H]2O[C@@]3(O)C(=O)C[C@@H](C)O[C@H]3O[C@@H]2[C@H]1O.Cl.Cl` [Spectinomycin dihydrochloride], the MCC13_AUC in the test with MCC13 cells (VN-MCC) (setting [6]) is reported as 461.506; in the test on MCC13 cells (VN-MCC) (area under the dose-response curve, MCC13 cells, AUC<450 = reduced viability), 467.588. Moreover, the HACAT_AUC with HACAT cells (setting [7]) is given as 460.149; in the test with HACAT cells (area under the dose-response curve, HACAT control cells, AUC<450 = reduced viability) it was 475.545. For the same molecule, in test [1] (MIPE library, Control AUC minus MCC AUC (therapeutic window), sheet S2E), the Control-MCC is given as 109.955. Besides, the UISO_AUC was 392.644 in the test on UISO cells (VN-MCC) (setting [6]) and 477.843 in the test on UISO cells (VN-MCC) (area under the dose-response curve, UISO cells, AUC<450 = reduced viability). Further, the CRL7250_AUC in the test with CRL-7250 cells (setting [7]) stood at 477.882; in the test on CRL-7250 cells (area under the dose-response curve, CRL7250 control cells, AUC<450 = reduced viability) it was 453.169. For the same molecule, the Control-VN-MCC in [2] (MIPE library, Control AUC minus VN-MCC AUC (therapeutic window), sheet S2E) came to 27.501. For the same molecule, the VN-MCC_Avg_AUC in test [2] (MIPE library, mean AUC of VN-MCC cell lines, sheet S2E) came to 445.075. Also, the MKL2_AUC in the test with MKL-2 cells (VP-MCC) (setting [6]) was determined as 323.757; in the test with MKL-2 cells (VP-MCC) (area under the dose-response curve, MKL-2 cells, AUC<450 = reduced viability), 429.069. Also, the MCC_Avg_AUC in [3] (MIPE library, mean AUC of six MCC cell lines, sheet S2E) came to 362.621. Moreover, the NIH3T3_AUC with NIH-3T3 cells (setting [7]) came to 480.157; in the test with NIH-3T3 cells (area under the dose-response curve, NIH3T3 control cells, AUC<450 = reduced viability) it was 486.283. The MCC26_AUC was 481.076 with MCC26 cells (VN-MCC) (setting [6]) and 511.183 with MCC26 cells (VN-MCC) (area under the dose-response curve, MCC26 cells, AUC<450 = reduced viability). Further, in test [4] (MIPE library, Control AUC minus VP-MCC AUC (therapeutic window), sheet S2E), the Control-VP-MCC came to 192.409. The molecule further had a VP-MCC_Avg_AUC in test [4] (MIPE library, mean AUC of VP-MCC cell lines, sheet S2E) of 280.167. The HEK293T_AUC is on record as 472.116 with HEK293T cells (setting [7]) and 456.43 in the test with HEK293T cells (area under the dose-response curve, HEK293T control cells, AUC<450 = reduced viability). Moreover, the MKL1_AUC with MKL-1 cells (VP-MCC) (setting [6]) amounted to 242.204; in the test on MKL-1 cells (VP-MCC) (area under the dose-response curve, MKL-1 cells, AUC<450 = reduced viability), 379.185. In addition, the WAGA_AUC in the test with WAGA cells (VP-MCC) (setting [6]) was found to be 274.54; in the test with WAGA cells (VP-MCC) (area under the dose-response curve, WAGA cells, AUC<450 = reduced viability) it was 400.83. The Control_Avg_AUC in test [5] (MIPE library, mean AUC of control cell lines, sheet S2E) is 472.576.
Consider `CC[N+](CC)(CC)CCOc1ccc(/C=C/c2ccccc2)cc1` [Stilonium iodide], for which the MCC13_AUC in the test with MCC13 cells (VN-MCC) was found to be 466.903. The same molecule returned an HACAT_AUC in the test on HACAT cells of 372.384. In test [1], this molecule displayed a Control-MCC of 21.0388. The same molecule came in with a UISO_AUC with UISO cells (VN-MCC) of 334.732. Moreover, in the test with CRL-7250 cells, the CRL7250_AUC is on record as 355.764. In test [2], this molecule gave a Control-VN-MCC of -18.2672 and a VN-MCC_Avg_AUC of 401.249. Besides, the MKL2_AUC in the test on MKL-2 cells (VP-MCC) is given as 312.305. In test [3], this molecule yielded an MCC_Avg_AUC of 361.943. In the test on NIH-3T3 cells, this molecule came in with an NIH3T3_AUC of 427.937. The same molecule showed an MCC26_AUC in the test with MCC26 cells (VN-MCC) of 402.111. In [4], this molecule displayed a Control-VP-MCC of 60.3449 and a VP-MCC_Avg_AUC of 322.637. This molecule also returned an HEK293T_AUC in the test on HEK293T cells of 375.842. Also, the MKL1_AUC in the test with MKL-1 cells (VP-MCC) was determined as 307.411. Moreover, the WAGA_AUC in the test with WAGA cells (VP-MCC) came to 348.194. For the same molecule, in [5], the Control_Avg_AUC stood at 382.981.
